Experimental data reported in patent US20020028851A1, “Guanylhydrazones and their use to treat inflammatory conditions” (priority 1994, published 2002).

Columns and labels:
[1] = test system: MIP-1β; experiment: Cytokine production by LPS/γIFN-stimulated human PBMC: MIP-1β; type: cell-based; settings: γIFN+LPS, 18 hr
Description: Similar results concerning a variety of cytokines in addition to TNF, e.g., IL-6 and Macrophage Inflammatory Proteins-1α and -1β (MIP-1α and MIP-1β) were obtained using human peripheral blood as a source of monocytes. Human peripheral blood mononuclear cells (PBMC) were isolated using “FICOLL®”-based methods and plated in standard 6-well culture plates at a concentration of 10^6/well and allowed to adhere for from 2 hr to overnight whereupon non-adherent cells were washed out and the medium was then replaced with medium containing the compound to be tested. One hour later, the medium was supplemented so as to contain 25 U/ml γIFN and 0.1 μg/ml LPS and the cultures incubated a further 18 hr. The medium was then collected, and cell debris removed by centrifugation. This conditioned supernatant was then assayed for the presence of cytokines using the standard methodologies of L929 cell cytotoxicity bioassay and immunoassay (ELISA).

[2] = test system: Endothelial Derived Relaxing Factor (EDRF) activity; experiment: Acetylcholine-induced hypotensive (EDRF) response; type: in vivo, rats; settings: 50 mg/Kg single intra-arterial dose; blood pressure 30 sec after ACh
Description: Female Sprague-Dawley rats (225-250 g body weight) were anesthetized with nembutal (50 mg/Kg, i.p.), a tracheostomy tube was inserted, and the carotid artery and jugular vein cannulated by standard methods using polyethylene tubing (PE 50). Tracey, K. J., et al., 1986, SCIENCE 234, 470-474. Blood pressure was recorded continuously with a pressure transducer and recorder (Model RS-3200, Gould Inc.,). In the experiment shown here, animals received a single sterile intra-arterial dose of either N^G-methyl-L-arginine (NMA; Sigma; 10 mg/Kg), Compound No. 14 (50 mg/Kg), or vehicle (0.4 ml). Acetylcholine (ACh) diluted in LPS-free sterile water was administered via the jugular vein cannula at the doses indicated. The solutions were diluted to produce a constant injectable volume of 1 ml/Kg body weight.
The hypotensive (EDRF) response was measured as the decline in mean arterial blood pressure recorded 30 sec after administration of ACh. The number of animals studied at each dose of acetylcholine was 4-6 for each experimental condition; data are expressed as the mean +s.e.m.

CC(=NNC(=N)N)c1cc(NC(=O)CCCCCCCCC(=O)Nc2cc(C(C)=NNC(=N)N)cc(C(C)=NNC(=N)N)c2)cc(C(C)=NNC(=N)N)c1.Cl.Cl.Cl.Cl [Compound 14, N,N′-bis(3,5-diacetyl-phenyl)decanediamide tetrakis(amidinohydrazone) tetrahydrochloride]
concentration that effectively inhibited production of MIP-1β [1]: 10 to 20 µM | acetylcholine-induced EDRF activity in vivo [2]: did not suppress
